Columns and labels:
[1] = system: organotypic raft cultures of primary human epidermal keratinocytes (NHEK); experiment: Hypoplasia/proliferation in 3-D organotypic raft cultures (ORC) of NHEK; type: cell-based; details: pGIPZ-infected ORCs, 7-day treatment with CBP 5 μM
Experimental: (§1) Three-dimensional (3-D) organotypic raft cultures (ORC) of human epidermis were made as described in Getsios et al (2009). Briefly, neonatal human epidermal keratinocytes (NHEK) were infected with shRNA- and pGIPZ-expressing lentiviruses followed, 48 h later, by selection for puromycin (2 μg/ml) resistance. Selected keratinocyte cultures were reseeded onto collagen gels with embedded J2-3T3 fibroblasts and cultured at the air-liquid interface as previously described for 3 days to allow the initial phase of epidermis formation. The standard ORC medium contains high 5×10^−7 M hydrocortisone. […]
Quantification of the epidermal width and number of basal keratinocytes (as the readouts for skin atrophy and hypoplasia of raft epidermis) was performed in dorsal skin and ORC sections stained with H&E. The number of dermal cells was determined on sections stained with Masson's trichrome in the upper (papillary) dermis that is distinguishable from the lower (reticular) dermis (Driskell et al, 2013). At least 10 individual fields per slide with at least three samples in each experimental group were counted using Axioplan2 microscope software (Carl Zeiss). […]
The numbers of BrdU+, p63+, and total number of basal keratinocytes were evaluated in 10 fields of view in each skin/ORC sample under the microscope. […]

human skin = experiment: Skin atrophy in human volunteers treated with topical glucocorticoid; type: in vivo; details: 0.05% cream daily, 2-week treatment
Experimental: (§2) Glucocorticoid CBP was applied topically as a 0.05% cream to the skin of right arm of healthy human volunteers (age 32-65) once or every 24 h for 2 weeks. Untreated left arm skin was used as control. Whole human skin samples were used for the molecular biological studies.
Quantification of the epidermal width and number of basal keratinocytes (as the readouts for skin atrophy and hypoplasia of raft epidermis) was performed in dorsal skin and ORC sections stained with H&E. The number of dermal cells was determined on sections stained with Masson's trichrome in the upper (papillary) dermis that is distinguishable from the lower (reticular) dermis (Driskell et al, 2013). At least 10 individual fields per slide with at least three samples in each experimental group were counted using Axioplan2 microscope software (Carl Zeiss). All measurements are presented as % to corresponding control.

REDD1 [2] = experiment: REDD1 mRNA expression in human skin (RT-PCR); type: in vivo; details: human skin treated with CBP 0.05% cream for 24 h-2 weeks
Experimental: as §2
Total RNA from murine epidermis, whole human skin, and cell cultures was isolated with RiboPure kit (Ambion, Life Technologies, Grand Island, N.Y., USA). Total RNA from murine s.c. adipose was isolated with RNeasy Lipid Tissue Kit (Qiagen, Valencia, Calif., USA). The RNA samples were treated with TURBOT™ DNase (Ambion). The gene expression was assessed using semi-quantitative two-step RT-PCR and quantitative Q-PCR. Reverse transcription was performed using 1 μg RNA, random hexamers, and M-MLV reverse transcriptase (Invitrogen, Life Technologies), according to manufacturer instructions. The gene-specific primers were designed with NCBI Primer-BLAST (data not shown, see Baida et al., EMBO, 2015, at Supplementary Table S4). Q-PCR with SYBR Green detection was performed on the Applied Biosystems® 7000 Real-Time PCR instrument (Life Technologies). […] For semi-quantitative PCRs, Taq DNA polymerase (Promega) was used, and PCR products were separated on 1.5% agarose gel and visualized using automated imaging system (Bio-Rad, Hercules, Calif., USA). […]

REDD1 [3] = experiment: REDD1 expression in organotypic raft cultures (Q-PCR, Western blot); type: cell-based, human; details: control pGIPZ ORCs, short-term (6 h) and chronic (7 days) CBP
Experimental: as §1, with “hydrocortisone. In our experiments, ORC were cultured in the medium with 10^−8 M hydrocortisone during first 3 days and then were treated with glucocorticoid CBP (5×10^−6 M) or vehicle control (0.05% DMSO) for 7 days. Rafts were treated with BrdU (10^−7 M) 1 h before harvesting and fixed in formalin.” for “hydrocortisone.”
Total RNA from murine epidermis, whole human skin, and cell cultures was isolated with RiboPure kit (Ambion, Life Technologies, Grand Island, N.Y., USA). […] The gene expression was assessed using semi-quantitative two-step RT-PCR and quantitative Q-PCR. […] For semi-quantitative PCRs, Taq DNA polymerase (Promega) was used, and PCR products were separated on 1.5% agarose gel and visualized using automated imaging system (Bio-Rad, Hercules, Calif., USA). […]

GR = details: Schäcke et al, 2009; cited from earlier work

negative effect on basal keratinocytes (compared with FA-treated mice) (human skin) | Structure (SMILES) | decrease in number and proliferation (BrdU incorporation) of basal keratinocytes [1] | REDD1 mRNA (REDD1 [2]) | REDD1 mRNA and protein (REDD1 [3]) | anti-inflammatory effect (GR) | skin atrophy (GR)
less pronounced | CCC(=O)O[C@]1(C(=O)CCl)[C@@H](C)C[C@H]2[C@@H]3CCC4=CC(=O)C=C[C@]4(C)[C@@]3(F)[C@@H](O)C[C@@]21C [CBP, clobetasol propionate] | 25-40% | strongly up-regulated | induced REDD1 mRNA and protein | – | –
– | Cc1ccc2c(NC[C@](O)(CC(C)(C)c3cc(F)cc4c3OCC4)C(F)(F)F)cccc2n1 [ZK245186/mapracorat] | – | – | – | preserve the anti-inflammatory effect of glucocorticoids | do not induce skin atrophy

— US9980976B2, “Use of REDD1 inhibitors to dissociate therapeutic and adverse atrophogenic effects of glucocorticoid receptor agonists” (Northwestern University, priority 2015, dated 2018)
